Tested on: ERK1/2
Experiment: Western blotting of ERK1/2 phosphorylation in synchronized hepatocytes
Type: cell-based, rat
Conditions: 50 μM + EGF; initial 30 min
Method: Total cell extracts were prepared as described previously (Papeleu et al. J Hepatol 39: 374-382, 2003) and proteins (25 or 50 μg per lane) were separated electrophoretically by SDS-PAGE and electroblotted onto nitrocellulose membranes (Amersham Pharmacia Biotech, Buckinghamshire, UK). Equal sample loading was verified by immersion of the membranes in Ponceau S. Unspecific binding sites were blocked with 5% skim milk/Tris-buffered saline. Incubations with primary antibodies were performed overnight at 4° C. under gentle shaking. Proteins were detected using the ECL detection system (Amersham Pharmacia Biotech, Buckinghamshire, UK) according to the manufacturer's recommendations.
Early cell cycle events can be triggered by distinct signalling pathways, activated by EGF, namely: the MEK/ERK, the mTOR/p70S6k, and the Pak1 pathways. Eventually, they all converge on cyclin D1 and play thus an essential role in the regulation of this critical cell cycle protein. […] This was done by culturing the hepatocytes in the absence of EGF for 48 hours, consequently stimulating them with EGF and exposing them to 50 μM 4-Me2N-BAVAH for 0.5, 1 and 3 hours before harvesting. Shortly after stimulation of synchronized primary hepatocytes with EGF, a rapid and sustained phosphorylation of ERK1/2 was observed (FIG. 20A). […]

For CN(C)c1ccc(C(=O)NCCCCC(=O)NO)cc1 [4-Me2N-BAVAH, 5-(4-dimethylaminobenzoyl)-aminovaleric acid hydroxamide], which ERK1/2 phosphorylation is on record?
Its ERK1/2 phosphorylation is “increase in ERK1/2 phosphorylation”.

Source: US20090130064A1, “DIFFERENTIATION OF STEM CELLS AND STABILIZATION OF PHENOTYPICAL PROPERTIES OF PRIMARY CELLS” (priority 2004, published 2009)
